# Earlier results, collected in article PMC10855781 (International Journal of Molecular Sciences, 2024).
# Read-outs that look alike come from different tables or passages of the source.
# Assays:
# DNA = settings: apparent equilibrium binding constant; ref [72]
# Description: Figure 2 The equilibrium binding constants of daunomycin (Dau) and its oxime-linked amino acid derivatives to DNA. TEXT PRINTED IN THE PICTURE: Dau: K (x10^5)(M^−1): 11.7 | H-Lys(Dau=Aoa-OH): K (x10^5)(M^−1): 6.8 | Dau=Aoa-Gly-OH: K (x10^5)(M^−1): 6.74 | Dau=Aoa-Tyr-OH: K (x10^5)(M^−1): 4.4 | Dau=Aoa-Leu-OH: K (x10^5)(M^−1): 3.23
# [1] = tested on: human breast adenocarcinoma (MCF-7); settings: ref [75]
# Description: Table 2 Comparative study of cytotoxic effects and cardiotoxicity elicited by selected GnRH-based anthracycline conjugates. | column: IC50 Values (μM)
# [2] = tested on: Human cardiac myocytes (HCM); parameters: key: 0: no cardiotoxicity; +: weak; ++: moderate; +++: strong cardiotoxicity; settings: long-term (0–72 h) cytotoxic effect, impedimetric; ref [75]
# Description: Table 2 Comparative study of cytotoxic effects and cardiotoxicity elicited by selected GnRH-based anthracycline conjugates. | column: Cardiotoxicity || The main drug-related toxic side effect of anthracyclines is cardiotoxicity, leading to cardiomyopathy and heart failure. Comparative experiments to determine the cardiotoxicity of peptide–anthracycline conjugates with different linkages might be informative for the other conjugates with different types of drugs as well. For this purpose, human cardiomyocytes (HCM) and human umbilical vein endothelial cells (HUVEC) were used as models. The long-term (0–72 h) cytotoxic effect of sixteen GnRH-based conjugates containing Dox and Dau was determined by real-time impedimetric sensing using th ...
# [3] = tested on: human umbilical vein endothelial cells (HUVEC); parameters: key: 0: no cardiotoxicity; +: weak; ++: moderate; +++: strong cardiotoxicity; settings: long-term (0–72 h) cytotoxic effect, impedimetric; ref [75]
# Description: Table 2 Comparative study of cytotoxic effects and cardiotoxicity elicited by selected GnRH-based anthracycline conjugates. | column: Cardiotoxicity
# C26 murine colon cancer = settings: ref [20]
# Description: Table 3 In vivo tumor growth inhibition of a few relevant Dau-GnRH-III conjugates. | column: C26 ^a s.c. Balb/c [%] || In our experiments, GnRH-III was applied as a targeting peptide. […] The effect highly depended on the treatment schedule. In the first attempt, the conjugate was administered i.p. at a dose of 8.86 μmol (5 mg Dau-content/kg body weight) five times on days 7, 9, 11, 14 and 16 after tumor transplantation ...
# C26 colon tumor = settings: (w) tumor weight reduction, day 13; treatments days 4 and 7; conjugates 26.6 μmol/kg (15 mg Dau content), Dau 2 mg/kg; ref [82],[86]
# Description: Table 3 In vivo tumor growth inhibition of a few relevant Dau-GnRH-III conjugates. | column: C26 orth. […] In the case of the C26 colon tumor-bearing female Balb/c mice, only a 7% reduction in tumor weight was detected on day 13 after the two treatments on days 4 and 7 with [^8Lys(Dau=Aoa)]-GnRH-III, at a 26.6 μmol/kg (15 mg Dau content) dose. […] It is worth ment ...
# HT-29 human colon cancer [4] = settings: SCID mice, single i.p. 2.5 mg/kg (4.43 μmol); ref [81]
# Description: Table 3 In vivo tumor growth inhibition of a few relevant Dau-GnRH-III conjugates. | column: HT-29 ^b s.c. SCID [%] || In another experiment, HT-29 human colon cancer was developed s.c. in immunodeficient SCID mice. Dau and two conjugates (with or without a GFLG spacer between the GnRH-III homing peptide and the payload) were used for the treatment. The first i.p. administrations were performed on day 13 after tumor inoculation. All the mice treated once with 2.5 mg/kg body weight (4.43 μmol) free Dau died within 10 days. In contrast, the conjugates at a dose of 15 mg Dau content/kg body weight (26.6 μmol) that refers to 52 mg/kg [^8Lys(Dau=Aoa)]-GnRH-III and 62.5 mg/kg [^8Lys(Dau=Aoa-GFLG)]-GnRH-III co ...
# HT-29 human colon cancer [5] = settings: ref [82]
# Description: Table 3 In vivo tumor growth inhibition of a few relevant Dau-GnRH-III conjugates. | column: HT-29 orth. SCID [%] || Starting from these promising results, Dau conjugates with further GnRH-III derivatives using different short-chain fatty acids (on the side chains of Lys in position 4) were developed. […] The experiment finished on day 30, but the animals in the group treated with Dau had to be sacrificed on day 23. […] However, these numbers cannot be directly compared because the termination days were different during the experiment. The toxicities of the compound ...
# mice = tested on: mice
# Description: The most widely studied oxime-linked daunomycin–peptide conjugates were GnRH-III-based derivatives. GnRH-III (<[…]-NH2, where <E is pyroglutamic acid) was first isolated from sea lamprey and has a very low-level hormonal effect in mammals, but binds to both the human GnRH receptors (GnRH-IR and GnRH-IIR). […] Nevertheless, the results of the in vivo acute and chronic toxicity measureme ...
# PANC-1 tumor = settings: ref [110]
# Description: The in vivo tumor growth inhibitory effect of the conjugate and free Dau was investigated on s.c.-developed PANC-1 tumor-bearing SCID female mice. The free drug was applied once a week at a maximum tolerated dose of 1 mg/kg body weight (three treatments), while the conjugate was administered, on average, three times per a week either at a 2 mg/kg or 10 mg/kg dose, calculated as per the Dau content (eighteen treatments altogether). The first treatment was given on day 10 after tumor inoculation. After the third treatment with free Dau, the animals lost 20% of their weight; therefore, the mice i ...
structure (smiles),measurement,setting,value
"COc1cccc2c1C(=O)c1c(O)c3c(c(O)c1C2=O)C[C@@](O)(C(C)=O)C[C@@H]3O[C@H]1C[C@H](N)[C@H](O)[C@H](C)O1 [Dau, daunomycin]","K, equilibrium binding constant to DNA",DNA,1.17e+06 M⁻¹
same,IC50,[1],0.4 ± 0.1 µM
same,"Cardiotoxicity, HCM",[2],+++
same,"Cardiotoxicity, HUVEC",[3],+++
same,tumor volume inhibition,"C26 murine colon cancer; free Dau 2 mg/kg (3.55 μmol) days 7, 9, 11, 14, 16, day 26",22.6%
same,median survival rate in comparison to the control group,"C26 murine colon cancer; free Dau 2 mg/kg days 7, 9, 11, 14, 16",0.81
same,C26 orth. Balb/c tumor growth inhibition (w),C26 colon tumor,24.4%
same,time within which all treated mice died,HT-29 human colon cancer [4],≤ 10 days
same,relative liver weight loss in comparison with the controls,HT-29 human colon cancer [5]; Dau 1 mg/kg i.v. weekly for 7 weeks,11%
same,tumor weight reduction,"HT-29 human colon cancer [5]; conjugates 17.72 μmol (10 mg Dau content)/kg s.c. x7, end day 30, Dau 1 mg/kg days 7, 13, 20, sacrificed day 23",84.3%
same,reduction in tumor weight,"HT-29 human colon cancer [5]; conjugates 15 mg Dau content/kg i.v. x5 from day 5, then 7.5 mg i.p. x8, twice a week, Dau 1 mg/kg i.v. weekly for 7 weeks",29.7%
same,proliferation index compared to the controls,"HT-29 human colon cancer [5]; same experiment as E44, average",98.6%
same,vascularization rate compared to the controls,HT-29 human colon cancer [5]; same experiment as E44,112.5%
same,rate of changes in the liver and body weights,HT-29 human colon cancer [5]; same experiment as E49,70.6%
same,dose with remarkable toxicity,mice; healthy mice,> 2 mg/kg
same,dose with remarkable toxicity,mice; immunodeficient mice,> 1 mg/kg
same,decrease in liver weight,"PANC-1 tumor; Dau 1 mg/kg once a week, three treatments",29.1%
same,body weight loss,"PANC-1 tumor; after third treatment, 1 mg/kg once a week, sacrificed day 28",20%
